Results published in patent US20070208067A1, “Tablet Formulations and Processes” (Wyeth, priority 2006, published 2007).

Columns and labels:
[1] = Dynamic vapor sorption (hygroscopicity) of the two crystal forms; assay type: physicochemical; conditions: for DVS weight gain: 0–90% RH; for Hygroscopicity (DVS): result in words
Source text: Dynamic Vapor Sorption (Allentown, Pa.) was used to measure the hygroscopicity of the anhydrate and monohydrate of the invention (see FIGS. 6 and 7). The step conditions were three hours each at 0%, 30%, 52.5%, 75% and 90% RH, two full cycles.

[2] = Stability studies of the two crystal forms (XRPD, TGA, HPLC); assay type: physicochemical; conditions: for Chemical stability (HPLC) / Crystal form transformation (XRPD and TGA): 40° C./75% RH (monohydrate also 40° C. without humidity control)
Procedure: […] At room temperature, humidity was maintained at 0% RH. Humidity was not controlled for the higher temperatures.
The samples were analyzed by XRPD and TGA.
Non-micronized samples of monohydrate and anhydrate were stored at 40° C./75% RH for three months. The monohydrate was also stored at 40° C. without humidity control. During the three months, the samples were checked after two weeks, one month, two months, and three months.

Compound	DVS weight gain [1]	Hygroscopicity (DVS) [1]	Crystal form transformation (XRPD) ([2]; micronized, 25° C./60% RH, three months)	Crystal form transformation (XRPD) ([2]; micronized, 40° C./75% RH, one month)	Chemical stability (HPLC) ([2]; non-micronized, three months)	Crystal form transformation (XRPD and TGA) ([2]; non-micronized, three months)	Crystal form transformation (XRPD) ([2]; non-micronized, 40° C./75% RH, separate study)	Solid-state stability (XRPD and TGA) ([2]; 56° C., humidity not controlled, one week)	Solid-state stability (XRPD and TGA) ([2]; 70° C., humidity not controlled, 1 day)	Solid-state stability (XRPD and TGA) ([2]; 70° C., humidity not controlled, 4 days)	Solid-state stability (XRPD and TGA) ([2]; 70° C., humidity not controlled, 7 days)	Solid-state stability (XRPD) ([2]; 70° C., one hour)	Solid-state stability (XRPD) ([2]; 90° C., one half hour)	Solid-state stability (XRPD) ([2]; 90° C., one hour)	Solid-state stability (XRPD and TGA) ([2]; room temperature, 0% RH, one week)
C=Cc1cc(O)cc2nc(-c3ccc(O)c(F)c3)oc12 [Anhydrate, 2-(3-fluoro-4-hydroxyphenyl)-7-vinyl-1,3-benzoxazol-5-ol]	0.2% gain (0–90% RH)	largely non-hygroscopic	did not transform to the monohydrate	partially transform to the monohydrate	chemically stable	did not transform	did not show any obvious transformation								
C=Cc1cc(O)cc2nc(-c3ccc(O)c(F)c3)oc12 [Monohydrate, 2-(3-fluoro-4-hydroxyphenyl)-7-vinyl-1,3-benzoxazol-5-ol]	0.1% gain (0–90% RH)	largely non-hygroscopic			chemically stable	did not transform		no obvious dehydration	no obvious hydration	partially dehydrated	mostly dehydrated	stable	partially dehydrated	completely dehydrated	no obvious dehydration
